According to US6541505B1, “Substituted (aminoiminomethyl or aminomethyl) benzoheteroaryl compounds” (Aventis Pharmaceuticals Inc., priority 1998, dated 2003):
Where a name gives a salt, the structure may show the parent alone.

Columns and labels:
[1] = test system: rabbit carotid artery air-drying injury model; conditions: after vascular injury; cited from earlier work

CC(=N)N1CC[C@H](Oc2ccc([C@H](Cc3ccc4ccc(C(=N)N)cc4c3)C(=O)O)cc2)C1 [DX-9065a]
neointimal proliferation [1]: less neointimal proliferation

CN(C)CCCCNc1nccc(-c2ccc(C(=O)NCCc3ccc4[nH]cc(C(=N)N)c4c3)cc2)n1 (as salt: salt) [Example 1aaas, N-[2-(3-Carbamimidoyl-1H-indol-5-yl)ethyl]-4-[2-(4-dimethylaminobutylamino)pyrimidin-4-yl]benzamide]
melting point: 156 to 159 °C

N=C(N)c1c[nH]c2ccc(CCNC(=O)c3ccc(-c4ccnc(NCCCCCCN5CCCC5)n4)cc3)cc12 [Example 1aaal, N-[2-(3-Carbamimidoyl-1H-indol-5-yl)ethyl]-4-[2-(6-pyrrolidin-1-yl-hexylamino)pyrimidin-4-yl]benzamide]
melting point: 159 to 161 °C

N=C(N)c1c[nH]c2ccc(CCNC(=O)c3ccc(-n4cccc4)nc3)cc12 [Example 1ab, N-(2-[3-Carbamimidoylindol-5-yl]ethyl)-6-pyrrol-1-ylnicotinamide]
melting point: 213 to 214 °C

N=C(N)c1c[nH]c2ccc(CCNC(=O)c3ccc(-c4ncns4)cc3)cc12 [Example 1i, N-(2-[3-Carbamimidoylindol-5-yl]ethyl)-4-(1,2,4)thiadiazol-5-ylbenzamide]
melting point: 222 to 224 °C

COc1ccc(-c2ccc(C(=O)NCCc3ccc4[nH]cc(C(=N)N)c4c3)cc2)cn1 [Example 1p, N-(2-[3-Carbamimidoylindol-5-yl]ethyl)-4-(6-methoxypyrid-3-yl)benzamide]
melting point: 164 to 167 °C

N=C(N)c1c[nH]c2ccc(CCNC(=O)c3ccc(-c4ccnc(NCCCCCCN5CCCCC5)n4)cc3)cc12 [Example 1aaam, N-[2-(3-Carbamimidoyl-1H-indol-5-yl)ethyl]-4-[2-(6-piperidin-1-ylhexylamino)pyrimidin-4-yl]benzamide]
melting point: 110 to 113 °C

CN1CCN(c2nccc(-c3ccc(C(=O)NCCc4ccc5[nH]cc(C(=N)N)c5c4)cc3)n2)CC1 (as salt: salt) [Example 1aaae, N-[2-(3-Carbamimidoyl-1H-indol-5-yl)ethyl]-4-[2-(4-methylpiperazin-1-yl)pyrimidin-4-yl]benzamide]
melting point: 111 to 113 °C

CN(C)CCCCCCNc1nccc(-c2ccc(C(=O)NCCc3ccc4[nH]cc(C(=N)N)c4c3)cc2)n1 (as salt: salt) [Example 1aaar, N-[2-(3-Carbamimidoyl-1H-indol-5-yl)ethyl]-4-[2-(6-dimethylaminohexylamino)pyrimidin-4-yl]benzamide]
melting point: 89 to 91 °C

CN(C)CCOc1ccccc1-c1ccc(C(=O)NCCc2ccc3[nH]cc(C(=N)N)c3c2)cc1 [Example 1aaaau, 2′-(2-Dimethylaminoethoxy)biphenyl-4-carboxylic acid [2-(3-carbamimidoyl-1H-indol-5-yl)ethyl]amide]
melting point: 73 to 76 °C

N=C(N)c1c[nH]c2ccc(CCNC(=O)c3ccc(-c4cccnc4)cc3)cc12 [Example 1a, N-(2-[3-Carbamimidoyl-5-indolyl]ethyl)-4-pyrid-3-ylbenzamide]
melting point: 55 to 58 °C

N=C(N)c1c[nH]c2ccc(CCNC(=O)c3ccc(-c4ccnc(CNCCCC(=O)O)n4)cc3)cc12 (as salt: salt) [Example 1aaaf, 4-[(4-{4-[2-(3-Carbamimidoyl-1H-indol-5-yl)ethylcarbamoyl]phenyl}pyrimidin-2-yl)methylamino]butyric acid]
melting point: 100 to 104 °C
